The nature of the assay: Inhibition of spike glycoprotein S in SARS-CoV-2 pseudovirus infected in human 293T/ACE2 cells assessed as inhibition of viral infection pretreated the virus for 30 mins followed by viral infection measured after 48 hrs by luciferase reporter gene assay.
As usually defined, the IC50 is the concentration that inhibits the measured activity by half. `COc1c(O)c2c(=O)cc(OC)c3c4c(OC)cc(=O)c5c(O)c(OC)c6c(c(c1C[C@](C)(O)[C@H]6C(C)=O)c23)c54`: the IC50 came out at 120 nM. As for `COC1=C(CC(C)=O)C(=O)c2c(c(O)cc(OC)c2-c2c(OC)cc(O)c3c2C(=O)C(CC(C)=O)=C(OC)C3=O)C1=O`, the IC50 came out at 170 nM. On to `COc1c2c3c4c(c(OC)c(=O)c5c(O)cc(OC)c(c6c(OC)cc(O)c(c1=O)c63)c54)[C@@H](C(C)=O)[C@@](C)(O)C2` [Hypocrellin A], for which the concentration for half-maximal inhibition (IC50) was 38 nM.

The values are drawn from BindingDB's records for doi:10.1021/acs.jnatprod.0c01136 (Chinese Academy of Sciences, 2021).
